Legend:
Settings in all cases: Compound concentration 1000.0 nM
[1] = target: RAC-beta serine/threonine-protein kinase (Homo sapiens) (UniProt P31751)
[2] = target: BMP-2-inducible protein kinase (Homo sapiens) (UniProt Q9NSY1)
[3] = target: T1, Beta-adrenergic receptor kinase 1 (Homo sapiens) (UniProt P25098)
T1 sequence (whole entry): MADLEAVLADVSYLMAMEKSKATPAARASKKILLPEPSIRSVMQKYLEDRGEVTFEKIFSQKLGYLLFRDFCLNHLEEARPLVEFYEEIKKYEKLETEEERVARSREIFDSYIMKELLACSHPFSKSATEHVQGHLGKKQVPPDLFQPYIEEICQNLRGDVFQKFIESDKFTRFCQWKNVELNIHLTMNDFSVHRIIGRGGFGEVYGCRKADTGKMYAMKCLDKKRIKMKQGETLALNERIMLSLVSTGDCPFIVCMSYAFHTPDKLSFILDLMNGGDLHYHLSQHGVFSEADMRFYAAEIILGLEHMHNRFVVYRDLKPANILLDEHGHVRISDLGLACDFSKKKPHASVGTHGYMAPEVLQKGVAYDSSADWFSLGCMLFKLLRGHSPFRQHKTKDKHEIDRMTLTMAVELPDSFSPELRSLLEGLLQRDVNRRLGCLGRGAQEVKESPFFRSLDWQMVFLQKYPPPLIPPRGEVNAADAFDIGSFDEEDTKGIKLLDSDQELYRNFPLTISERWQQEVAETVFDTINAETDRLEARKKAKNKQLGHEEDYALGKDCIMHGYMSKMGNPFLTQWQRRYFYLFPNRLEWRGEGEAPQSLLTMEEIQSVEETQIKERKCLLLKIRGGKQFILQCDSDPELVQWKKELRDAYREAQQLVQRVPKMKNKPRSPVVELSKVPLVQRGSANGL

[4] = target: T2, Inhibitor of nuclear factor kappa-B kinase subunit beta (Homo sapiens) (UniProt O14920)
T2 sequence (whole entry): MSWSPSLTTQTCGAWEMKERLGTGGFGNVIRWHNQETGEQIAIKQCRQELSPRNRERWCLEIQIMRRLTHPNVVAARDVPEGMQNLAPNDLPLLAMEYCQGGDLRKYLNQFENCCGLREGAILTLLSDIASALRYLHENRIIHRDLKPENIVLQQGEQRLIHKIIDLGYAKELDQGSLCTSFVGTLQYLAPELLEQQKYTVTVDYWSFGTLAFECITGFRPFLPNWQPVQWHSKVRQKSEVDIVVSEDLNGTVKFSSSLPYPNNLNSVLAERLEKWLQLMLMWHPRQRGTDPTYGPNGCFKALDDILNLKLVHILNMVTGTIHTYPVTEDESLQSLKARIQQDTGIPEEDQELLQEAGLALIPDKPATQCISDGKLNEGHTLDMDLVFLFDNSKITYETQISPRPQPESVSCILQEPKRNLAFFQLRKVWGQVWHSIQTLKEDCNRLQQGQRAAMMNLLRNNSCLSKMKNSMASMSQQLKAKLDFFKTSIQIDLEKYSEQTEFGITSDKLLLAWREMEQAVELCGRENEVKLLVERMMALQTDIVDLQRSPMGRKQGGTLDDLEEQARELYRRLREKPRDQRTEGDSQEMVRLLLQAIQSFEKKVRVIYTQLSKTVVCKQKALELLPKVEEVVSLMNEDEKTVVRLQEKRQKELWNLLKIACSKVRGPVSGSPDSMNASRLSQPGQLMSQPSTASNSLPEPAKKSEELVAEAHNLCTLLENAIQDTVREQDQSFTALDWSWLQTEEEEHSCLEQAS

[5] = target: T3, Inhibitor of nuclear factor kappa-B kinase subunit epsilon (Homo sapiens) (UniProt Q14164)
T3 sequence (whole entry): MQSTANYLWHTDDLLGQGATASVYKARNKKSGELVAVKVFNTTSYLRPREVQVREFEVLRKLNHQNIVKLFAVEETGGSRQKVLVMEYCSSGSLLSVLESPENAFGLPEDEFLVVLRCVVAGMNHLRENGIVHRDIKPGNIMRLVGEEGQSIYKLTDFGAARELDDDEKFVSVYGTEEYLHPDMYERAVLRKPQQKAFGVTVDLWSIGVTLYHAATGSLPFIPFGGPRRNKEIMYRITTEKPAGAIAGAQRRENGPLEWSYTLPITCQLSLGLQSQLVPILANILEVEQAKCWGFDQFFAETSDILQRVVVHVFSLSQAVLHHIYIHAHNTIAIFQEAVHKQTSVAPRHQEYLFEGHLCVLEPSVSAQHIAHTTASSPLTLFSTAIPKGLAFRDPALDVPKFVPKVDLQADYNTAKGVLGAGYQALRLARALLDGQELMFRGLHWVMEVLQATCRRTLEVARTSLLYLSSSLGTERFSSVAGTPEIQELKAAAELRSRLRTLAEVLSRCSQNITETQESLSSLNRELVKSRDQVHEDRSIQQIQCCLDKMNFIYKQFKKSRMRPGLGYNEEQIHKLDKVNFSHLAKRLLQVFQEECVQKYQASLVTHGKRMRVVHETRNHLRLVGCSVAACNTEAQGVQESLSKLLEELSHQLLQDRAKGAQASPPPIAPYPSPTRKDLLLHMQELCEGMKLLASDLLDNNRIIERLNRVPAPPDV

[6] = target: Insulin receptor (Homo sapiens) (UniProt P06213)
Sequence of Insulin receptor (Homo sapiens) (P06213 28-758 limits assumed): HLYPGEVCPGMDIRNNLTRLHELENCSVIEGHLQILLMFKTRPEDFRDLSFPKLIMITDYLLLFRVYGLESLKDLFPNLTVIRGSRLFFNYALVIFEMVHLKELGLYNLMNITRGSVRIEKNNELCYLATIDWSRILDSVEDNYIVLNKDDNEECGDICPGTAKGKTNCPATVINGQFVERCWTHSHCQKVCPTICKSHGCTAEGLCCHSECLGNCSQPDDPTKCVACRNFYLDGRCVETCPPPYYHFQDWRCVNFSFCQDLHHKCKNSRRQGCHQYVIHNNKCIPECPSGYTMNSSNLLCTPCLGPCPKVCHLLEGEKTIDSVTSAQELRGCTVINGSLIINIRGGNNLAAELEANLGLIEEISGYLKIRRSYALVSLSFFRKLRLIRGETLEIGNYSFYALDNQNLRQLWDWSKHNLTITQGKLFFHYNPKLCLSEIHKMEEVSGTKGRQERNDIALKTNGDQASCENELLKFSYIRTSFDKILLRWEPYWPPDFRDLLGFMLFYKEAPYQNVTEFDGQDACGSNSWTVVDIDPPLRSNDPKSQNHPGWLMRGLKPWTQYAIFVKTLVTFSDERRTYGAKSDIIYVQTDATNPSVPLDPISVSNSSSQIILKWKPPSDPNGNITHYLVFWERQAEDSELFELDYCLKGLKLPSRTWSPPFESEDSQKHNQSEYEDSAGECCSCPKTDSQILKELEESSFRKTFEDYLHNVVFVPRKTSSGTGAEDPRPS
Sequence of Insulin receptor (Homo sapiens) (P06213 763-1382 limits assumed): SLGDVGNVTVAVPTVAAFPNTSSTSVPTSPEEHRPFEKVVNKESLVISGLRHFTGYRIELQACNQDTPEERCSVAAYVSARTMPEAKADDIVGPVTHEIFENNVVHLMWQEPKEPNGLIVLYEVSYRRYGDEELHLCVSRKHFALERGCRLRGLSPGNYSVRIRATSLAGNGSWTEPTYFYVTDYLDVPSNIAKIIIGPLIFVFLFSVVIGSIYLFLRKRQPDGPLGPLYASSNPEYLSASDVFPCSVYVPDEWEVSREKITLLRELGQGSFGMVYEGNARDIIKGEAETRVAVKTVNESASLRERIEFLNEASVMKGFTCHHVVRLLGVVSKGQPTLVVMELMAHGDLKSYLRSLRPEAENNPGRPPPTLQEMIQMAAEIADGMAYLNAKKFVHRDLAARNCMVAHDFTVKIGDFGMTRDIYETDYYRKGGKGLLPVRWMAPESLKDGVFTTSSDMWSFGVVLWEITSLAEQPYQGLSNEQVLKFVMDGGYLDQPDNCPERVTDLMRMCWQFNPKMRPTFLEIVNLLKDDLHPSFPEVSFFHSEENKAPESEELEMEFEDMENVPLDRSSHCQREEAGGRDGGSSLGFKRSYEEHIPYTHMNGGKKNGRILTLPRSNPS

[7] = target: Serine/threonine-protein kinase N1 (Homo sapiens) (UniProt Q16512)
Sequence of Serine/threonine-protein kinase N1 (Homo sapiens) (Q16512 2-942 limits assumed): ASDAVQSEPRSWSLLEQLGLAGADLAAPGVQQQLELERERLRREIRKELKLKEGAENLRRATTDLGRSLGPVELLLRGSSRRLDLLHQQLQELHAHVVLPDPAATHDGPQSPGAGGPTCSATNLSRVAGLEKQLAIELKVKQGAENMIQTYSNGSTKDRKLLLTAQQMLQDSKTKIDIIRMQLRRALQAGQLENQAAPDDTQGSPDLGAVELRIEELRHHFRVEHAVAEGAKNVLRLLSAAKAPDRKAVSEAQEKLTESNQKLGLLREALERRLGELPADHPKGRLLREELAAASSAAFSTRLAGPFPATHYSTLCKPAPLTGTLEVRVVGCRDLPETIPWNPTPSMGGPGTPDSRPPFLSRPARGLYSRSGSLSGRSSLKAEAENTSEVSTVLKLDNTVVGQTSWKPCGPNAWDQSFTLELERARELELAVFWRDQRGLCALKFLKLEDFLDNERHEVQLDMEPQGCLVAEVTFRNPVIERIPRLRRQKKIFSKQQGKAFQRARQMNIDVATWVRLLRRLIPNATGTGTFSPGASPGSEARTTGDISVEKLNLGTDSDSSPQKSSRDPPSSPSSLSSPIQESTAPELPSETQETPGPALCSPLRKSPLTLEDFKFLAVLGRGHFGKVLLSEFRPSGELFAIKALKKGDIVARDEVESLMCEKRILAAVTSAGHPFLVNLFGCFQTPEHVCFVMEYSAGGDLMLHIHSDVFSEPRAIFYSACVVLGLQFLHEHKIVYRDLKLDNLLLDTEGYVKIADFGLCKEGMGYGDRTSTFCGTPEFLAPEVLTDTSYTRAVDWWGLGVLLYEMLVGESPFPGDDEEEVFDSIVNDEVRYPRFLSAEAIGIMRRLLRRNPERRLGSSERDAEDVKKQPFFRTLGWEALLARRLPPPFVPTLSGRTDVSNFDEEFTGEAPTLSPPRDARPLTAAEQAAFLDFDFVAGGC

[8] = target: Serine/threonine-protein kinase PLK1 (Homo sapiens) (UniProt P53350)
Sequence of Serine/threonine-protein kinase PLK1 (Homo sapiens) (P53350 whole entry): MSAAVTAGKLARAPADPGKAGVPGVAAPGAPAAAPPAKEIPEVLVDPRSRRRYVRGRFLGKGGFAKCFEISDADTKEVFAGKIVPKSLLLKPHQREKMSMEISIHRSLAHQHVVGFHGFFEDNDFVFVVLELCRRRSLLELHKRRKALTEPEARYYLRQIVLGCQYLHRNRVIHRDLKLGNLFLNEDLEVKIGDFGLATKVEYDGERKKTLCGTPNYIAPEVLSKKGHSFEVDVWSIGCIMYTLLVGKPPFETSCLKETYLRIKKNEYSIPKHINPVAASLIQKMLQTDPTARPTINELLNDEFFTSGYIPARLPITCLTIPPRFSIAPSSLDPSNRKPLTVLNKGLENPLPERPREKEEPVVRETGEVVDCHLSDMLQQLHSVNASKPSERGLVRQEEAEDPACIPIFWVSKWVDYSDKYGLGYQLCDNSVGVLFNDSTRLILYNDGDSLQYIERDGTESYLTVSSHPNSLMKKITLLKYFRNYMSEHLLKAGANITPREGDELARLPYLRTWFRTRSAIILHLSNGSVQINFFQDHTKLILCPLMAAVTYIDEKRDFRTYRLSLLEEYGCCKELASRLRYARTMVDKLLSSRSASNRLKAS

[9] = target: Serine/threonine-protein kinase 36 (Homo sapiens) (UniProt Q9NRP7)
[10] = target: Transient receptor potential cation channel subfamily M member 6 (Homo sapiens) (UniProt Q9BX84)

Measured: residual activity

Sequence of BMP-2-inducible protein kinase (Homo sapiens) (Q9NSY1 whole entry, looked up): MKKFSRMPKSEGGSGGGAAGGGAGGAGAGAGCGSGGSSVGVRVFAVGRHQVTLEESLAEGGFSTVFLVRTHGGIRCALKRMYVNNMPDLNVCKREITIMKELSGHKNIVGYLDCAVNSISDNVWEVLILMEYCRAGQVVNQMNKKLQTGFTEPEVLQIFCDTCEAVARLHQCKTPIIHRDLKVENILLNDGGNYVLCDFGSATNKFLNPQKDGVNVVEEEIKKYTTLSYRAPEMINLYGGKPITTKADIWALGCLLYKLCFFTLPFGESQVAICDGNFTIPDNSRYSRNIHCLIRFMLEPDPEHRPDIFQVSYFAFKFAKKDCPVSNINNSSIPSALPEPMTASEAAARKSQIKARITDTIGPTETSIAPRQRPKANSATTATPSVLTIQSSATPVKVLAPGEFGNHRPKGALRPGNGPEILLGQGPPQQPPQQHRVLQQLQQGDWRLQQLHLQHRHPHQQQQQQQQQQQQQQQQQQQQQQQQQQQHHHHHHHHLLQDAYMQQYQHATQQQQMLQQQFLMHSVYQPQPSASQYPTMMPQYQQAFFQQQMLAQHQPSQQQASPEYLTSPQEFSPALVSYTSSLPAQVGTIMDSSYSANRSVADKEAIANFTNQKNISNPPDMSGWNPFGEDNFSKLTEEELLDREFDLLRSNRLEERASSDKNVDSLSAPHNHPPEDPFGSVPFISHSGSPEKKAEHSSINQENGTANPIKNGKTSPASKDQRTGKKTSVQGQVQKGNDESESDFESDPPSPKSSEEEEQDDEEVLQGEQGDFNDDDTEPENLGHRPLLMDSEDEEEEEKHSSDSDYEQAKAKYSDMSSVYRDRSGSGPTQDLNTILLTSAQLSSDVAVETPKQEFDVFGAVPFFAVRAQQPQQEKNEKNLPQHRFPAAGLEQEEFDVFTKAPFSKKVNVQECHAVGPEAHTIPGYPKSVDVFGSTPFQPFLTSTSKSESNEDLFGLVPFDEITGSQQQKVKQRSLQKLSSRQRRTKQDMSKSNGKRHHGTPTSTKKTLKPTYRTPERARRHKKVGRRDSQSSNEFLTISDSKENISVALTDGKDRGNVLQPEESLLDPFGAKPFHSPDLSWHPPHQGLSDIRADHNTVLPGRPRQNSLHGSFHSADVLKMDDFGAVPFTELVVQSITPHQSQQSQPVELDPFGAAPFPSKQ
Sequence of RAC-beta serine/threonine-protein kinase (Homo sapiens) (P31751 whole entry): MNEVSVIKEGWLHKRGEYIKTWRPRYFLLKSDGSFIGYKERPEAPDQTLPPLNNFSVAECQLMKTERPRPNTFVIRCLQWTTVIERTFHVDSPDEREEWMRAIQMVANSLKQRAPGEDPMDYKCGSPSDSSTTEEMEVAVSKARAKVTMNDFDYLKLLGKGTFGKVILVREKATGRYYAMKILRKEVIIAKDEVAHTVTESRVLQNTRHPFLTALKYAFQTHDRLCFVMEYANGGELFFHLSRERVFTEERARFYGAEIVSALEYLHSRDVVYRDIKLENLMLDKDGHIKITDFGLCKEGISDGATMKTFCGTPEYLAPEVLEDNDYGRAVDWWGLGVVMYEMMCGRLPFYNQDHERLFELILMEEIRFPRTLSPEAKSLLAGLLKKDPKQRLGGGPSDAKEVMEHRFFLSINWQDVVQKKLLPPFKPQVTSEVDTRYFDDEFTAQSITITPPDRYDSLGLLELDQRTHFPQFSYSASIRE

CN(C)C(=O)Cn1cc(-c2nc(C3(c4ccc(-c5cnc(N)nc5)cc4)CC3)no2)cn1 [BI 0153]
inactive: [1] 100% | [2] 99% | [3] 67% | [4] 90% | [5] 57% | [6] 90% | [7] 84% | [8] 82% | [9] 75% | [10] 86%

CN(C)C(=O)Cn1cc(-c2nc([C@@](C)(c3ccc(-c4cnc(N)nc4)cc3)C3CC3)no2)cn1 [BI 665915]
inactive: [1] 84% | [2] 100% | [3] 78% | [4] 100% | [5] 86% | [6] 89% | [7] 99% | [8] 77% | [9] 79% | [10] 78%

Source: ChEMBL document CHEMBL4507276 (2021)
